This experiment concerns the target T1, human APJ receptor (Homo sapiens, UniProt P35414).
T1 construct: expressed in transfected cells; host or cells: HEK293
T1 sequence (P35414 1-380): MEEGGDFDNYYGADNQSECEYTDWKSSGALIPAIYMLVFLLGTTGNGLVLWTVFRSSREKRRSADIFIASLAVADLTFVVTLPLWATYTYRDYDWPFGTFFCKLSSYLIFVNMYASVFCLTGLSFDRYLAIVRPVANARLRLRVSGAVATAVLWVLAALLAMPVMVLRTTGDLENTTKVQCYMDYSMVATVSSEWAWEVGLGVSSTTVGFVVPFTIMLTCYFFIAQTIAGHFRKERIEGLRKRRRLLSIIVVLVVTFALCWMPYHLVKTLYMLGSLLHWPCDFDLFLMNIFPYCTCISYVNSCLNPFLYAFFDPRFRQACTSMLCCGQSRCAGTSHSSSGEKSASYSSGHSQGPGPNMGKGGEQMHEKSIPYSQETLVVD
The experiment can be described thus: Intracellular cAMP Accumulation Assay (APJ hcAMP, HTRF). It is filed as cell-based. To be noted: human APJ, read-out: hAPJ cAMP EC50 Potency range. The method, boiled down:
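Stably transfected HEK293 cells (5,000/well) incubated 30 min at room temperature with serially diluted compound, […] and 2 μM forskolin. cAMP measured by HTRF after 60 min with detection reagents, quantified against a cAMP standard curve; EC50 from variable-slope sigmoidal fit of inhibition of forskolin-stimulated cAMP.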
In general terms: Time-resolved FRET reads energy transfer from a long-lived donor to a nearby acceptor.

The mark [1] stands for this setting: intracellular cAMP accumulation.
Where [2] appears, read: cAMP accumulation, potency range class.

Read-outs that look alike come from different tables or passages of the source.

The EC50 is the midpoint of the concentration-response curve. As for `CCCCc1nc(=O)c(C(=O)N2CC[C@@H](c3ccccc3)C2)c(O)n1[C@@H](C)c1cccc(C#N)c1` [Example 149, 3-[(1S)-1-{2-butyl-4-hydroxy-6-oxo-5-[(3S)-3-phenylpyrrolidine-1-carbonyl]-1,6-dihydropyrimidin-1-yl}ethyl]benzonitrile], the 50% effective concentration (EC50) under setting [1] fell in the range of 10 to 100 nM.

As for `CCCCc1nc(=O)c(C(=O)N2CC[C@H](c3ccccc3)C2)c(O)n1C(C)C` [Example 150, 2-butyl-6-hydroxy-5-[(3R)-3-phenylpyrrolidine-1-carbonyl]-3-(propan-2-yl)-3,4-dihydropyrimidin-4-one], the EC50 under setting [1] fell in the range of 10 to 100 nM.

As for `CCCCc1nc(=O)c(C(=O)N2CC[C@@H](c3ccccc3)C2)c(O)n1[C@@H](C)c1ccccc1OC` [Example 151, 2-butyl-6-hydroxy-3-[(1S)-1-(2-methoxypheny)ethyl]-5-[(3S)-3-phenylpyrrolidine-1-carbonyl]-3,4-dihydropyrimidin-4-one], the concentration for a half-maximal effect (EC50) under setting [1] was in the range of 10 to 100 nM.

On to `CCCCc1nc(=O)c(C(=O)N2CC[C@H](c3ccccc3)C2)c(O)n1[C@H](COC)c1ccccc1` [Example 152, 2-butyl-6-hydroxy-3-[(1S)-2-methoxy-1-phenylethyl]-5-[(3R)-3-phenylpyrrolidine-1-carbonyl]-3,4-dihydropyrimidin-4-one], for which the EC50 under setting [1] is 10 to 100 nM.

In the case of `CCCCc1nc(=O)c(C(=O)N2CC[C@@H](c3ccccc3)C2)c(O)n1[C@@H](CCC)c1ccccc1` [Example 153, 2-butyl-6-hydroxy-3-[(1S)-1-phenylbutyl]-5-[(3S)-3-phenylpyrrolidine-1-carbonyl]-3,4-dihydropyrimidin-4-one], the half-maximal effective concentration (EC50) under setting [1] lay in the range of 10 to 100 nM.

Turning to `CCCCc1nc(=O)c(C(=O)N2CC[C@@H](c3ccccc3)C2)c(O)n1[C@H](COC)c1ccccc1` [Example 154, 2-butyl-6-hydroxy-3-[(1S)-2-methoxy-1-phenylethyl]-5-[(3S)-3-phenylpyrrolidine-1-carbonyl]-3,4-dihydropyrimidin-4-one], the EC50 under setting [1] is 10 to 100 nM.

As for `CCCCc1nc(=O)c(C(=O)N2CC[C@@H](c3ccccc3)C2)c(O)n1[C@H](C)C1CC1` [Example 155, 2-butyl-3-[(1R)-1-cyclopropylethyl]-6-hydroxy-5-[(3S)-3-phenylpyrrolidine-1-carbonyl]-3,4-dihydropyrimidin-4-one], the EC50 under setting [1] fell in the range of 100 to 300 nM.

As for `CCCCc1nc(=O)c(C(=O)N2CC[C@H](c3ccccc3)C2)c(O)n1[C@@H](C)c1ccccc1OC` [Example 156, 2-butyl-6-hydroxy-3-[(1S)-1-(2-methoxyphenyl)ethyl]-5-[(3R)-3-phenylpyrrolidine-1-carbonyl]-3,4-dihydropyrimidin-4-one], the EC50 under setting [1] fell in the range of 100 to 300 nM.

As to `CCCCc1nc(=O)c(C(=O)N2CC[C@H](c3ccccc3)C2)c(O)n1[C@@H](C)c1ccc(F)cc1` [Example 157, 2-butyl-3-[(1S)-1-(4-fluorophenyl)ethyl]-6-hydroxy-5-[(3R)-3-phenylpyrrolidine-1-carbonyl]-3,4-dihydropyrimidin-4-one], under setting [1], the 50% effective concentration (EC50) lay in the range of 100 to 300 nM.

Turning to `CCCCc1nc(=O)c(C(=O)N2CC[C@@H](c3ccccc3)C2)c(O)n1C(C)C` [Example 159, 2-butyl-6-hydroxy-5-[(3S)-3-phenylpyrrolidine-1-carbonyl]-3-(propan-2-yl)-3,4-dihydropyrimidin-4-one], the EC50 under setting [1] was in the range of 100 to 300 nM.

Consider `COc1cccc(OC)c1-n1c(CCC2CC2)nc(=O)c(C(=O)N2CC=C(c3ccc(Cl)cn3)C2)c1O` [Example 172, 5-[3-(5-chloropyridin-2-yl)-2,5-dihydro-1H-pyrrole-1-carbonyl]-2-(2-cyclopropylethyl)-1-(2,6-dimethoxyphenyl)-6-hydroxy-1,4-dihydropyrimidin-4-one], for which the EC50 under setting [1] was in the range of 0.01 to 10 nM.

For `COc1cccc(OC)c1-n1c(CCC2CC2)nc(=O)c(C(=O)N2CCN(Cc3cccc(F)c3F)CC2)c1O` [Example 173, 2-(2-cyclopropylethyl)-5-{4-[(2,3-difluorophenyl)methyl]piperazine-1-carbonyl}-1-(2,6-dimethoxyphenyl)-6-hydroxy-1,4-dihydropyrimidin-4-one], under setting [1], the 50% effective concentration (EC50) fell in the range of 0.01 to 10 nM.

As for `CCc1cccc(CC)c1-n1c(COC(C)C)nc(O)c(C(=O)N2CCC(c3ccc(Cl)nc3)CC2)c1=O` [Example 222, 5-[4-(6-chloropyridin-3-yl)piperidine-1-carbonyl]-3-(2,6-diethylphenyl)-6-hydroxy-2-[(propan-2-yloxy)methyl]-3,4-dihydropyrimidin-4-one], under setting [2], the half-maximal effective concentration (EC50) fell in the range of 100 to 300 nM.

For the compound `COc1cccc(OC)c1-n1c(CC2CC2)nc(=O)c(C(=O)N2CCC(c3ccc(Cl)nc3)CC2)c1O` [Example 227, 5-[4-(6-chloropyridin-3-yl)piperidine-1-carbonyl]-2-(cyclopropylmethyl)-1-(2,6-dimethoxyphenyl)-6-hydroxy-1,4-dihydropyrimidin-4-one], the concentration for a half-maximal effect (EC50) under setting [2] was 10 to 100 nM.

Take `COc1cccc(OC)c1-n1c(-c2csc(C)n2)nc(=O)c(C(=O)N2CCC(Oc3cccc(F)c3F)CC2)c1O` [Example 277, 5-[4-(2,3-difluorophenoxy)piperidine-1-carbonyl]-1-(2,6-dimethoxyphenyl)-6-hydroxy-2-(2-methyl-1,3-thiazol-4-yl)-1,4-dihydropyrimidin-4-one]: under setting [2], the concentration for a half-maximal effect (EC50) lay in the range of 0.01 to 10 nM.

In the case of `CCc1cccc(CC)c1-n1c(-c2ccn(C)n2)nc(=O)c(C(=O)N2CC[C@H](c3ccccc3)C2)c1O` [Example 283, 1-(2,6-diethylphenyl)-6-hydroxy-2-(1-methyl-1H-pyrazol-3-yl)-5-[(3R)-3-phenylpyrrolidine-1-carbonyl]-1,4-dihydropyrimidin-4-one], the EC50 under setting [2] was 0.01 to 10 nM.

Regarding `CCn1ccc(-c2nc(=O)c(C(=O)N3CC[C@H](c4ccccc4)C3)c(O)n2-c2c(OC)cccc2OC)n1` [Example 284, 1-(2,6-dimethoxyphenyl)-2-(1-ethyl-1H-pyrazol-3-yl)-6-hydroxy-5-[(3R)-3-phenylpyrrolidine-1-carbonyl]-1,4-dihydropyrimidin-4-one], the concentration for a half-maximal effect (EC50) under setting [2] lay in the range of 0.01 to 10 nM.

As to `CCc1cccc(CC)c1-n1c(-c2ccn(C)n2)nc(=O)c(C(=O)N2CC[C@@H](c3ccccc3)C2)c1O` [Example 285, 1-(2,6-diethylphenyl)-6-hydroxy-2-(1-methyl-1H-pyrazol-3-yl)-5-[(3S)-3-phenylpyrrolidine-1-carbonyl]-1,4-dihydropyrimidin-4-one], the half-maximal effective concentration (EC50) under setting [2] was 0.01 to 10 nM.

For `CCn1ccc(-c2nc(=O)c(C(=O)N3CC[C@@H](c4ccccc4)C3)c(O)n2-c2c(OC)cccc2OC)n1` [Example 286, 1-(2,6-dimethoxyphenyl)-2-(1-ethyl-1H-pyrazol-3-yl)-6-hydroxy-5-[(3S)-3-phenylpyrrolidine-1-carbonyl]-1,4-dihydropyrimidin-4-one], the EC50 under setting [2] lay within 0.01 to 10 nM.

Regarding `CCn1ccc(-c2nc(=O)c(C(=O)N3CC[C@@H](c4ccccc4)C3)c(O)n2-c2cccc(C(C)C)c2)n1` [Example 288, 2-(1-ethyl-1H-pyrazol-3-yl)-6-hydroxy-5-[(3S)-3-phenylpyrrolidine-1-carbonyl]-1-[3-(propan-2-yl)phenyl]-1,4-dihydropyrimidin-4-one], the 50% effective concentration (EC50) under setting [2] was in the range of 0.01 to 10 nM.

For the compound `CCc1cccc(CC)c1-n1c(-c2ccn(C(C)C)n2)nc(=O)c(C(=O)N2CC[C@@H](c3ccccc3)C2)c1O` [Example 289, 1-(2,6-diethylphenyl)-6-hydroxy-5-[(3S)-3-phenylpyrrolidine-1-carbonyl]-2-[1-(propan-2-yl)-1H-pyrazol-3-yl]-1,4-dihydropyrimidin-4-one], the 50% effective concentration (EC50) under setting [2] fell in the range of 0.01 to 10 nM.

For the compound `CCn1ccc(-c2nc(=O)c(C(=O)N3CC[C@H](c4ccccc4)C3)c(O)n2-c2cccc(C(C)C)c2)n1` [Example 291, 2-(1-ethyl-1H-pyrazol-3-yl)-6-hydroxy-5-[(3R)-3-phenylpyrrolidine-1-carbonyl]-1-[3-(propan-2-yl)phenyl]-1,4-dihydropyrimidin-4-one], the half-maximal effective concentration (EC50) under setting [2] lay within 0.01 to 10 nM.

`CCc1cccc(CC)c1-n1c(-c2csc(C(C)C)n2)nc(=O)c(C(=O)N2CC[C@@H](c3ccccc3)C2)c1O` [Example 299, 1-(2,6-diethylphenyl)-6-hydroxy-5-[(3S)-3-phenylpyrrolidine-1-carbonyl]-2-[2-(propan-2-yl)-1,3-thiazol-4-yl]-1,4-dihydropyrimidin-4-one]: under setting [2], the half-maximal effective concentration (EC50) lay in the range of 0.01 to 10 nM.

Turning to `CCc1cccc(CC)c1-n1c(-c2csc(C)n2)nc(=O)c(C(=O)N2CC[C@H](c3ccccc3)C2)c1O` [Example 301, 1-(2,6-diethylphenyl)-6-hydroxy-2-(2-methyl-1,3-thiazol-4-yl)-5-[(3R)-3-phenylpyrrolidine-1-carbonyl]-1,4-dihydropyrimidin-4-one], under setting [2], the EC50 lay within 0.01 to 10 nM.

Regarding `CCc1cccc(CC)c1-n1c(-c2csc(C)n2)nc(=O)c(C(=O)N2CC[C@@H](c3ccccc3)C2)c1O` [Example 303, 1-(2,6-diethylphenyl)-6-hydroxy-2-(2-methyl-1,3-thiazol-4-yl)-5-[(3S)-3-phenylpyrrolidine-1-carbonyl]-1,4-dihydropyrimidin-4-one], the EC50 under setting [2] lay in the range of 0.01 to 10 nM.

Take `CC[C@@H](c1ccccc1)n1c(-c2ccc(F)c(C)c2)nc(=O)c(C(=O)N2CC[C@H](c3ccccc3)C2)c1O` [Example 314, 2-(4-fluoro-3-methylphenyl)-6-hydroxy-1-[(1S)-1-phenylpropyl]-5-[(3R)-3-phenylpyrrolidine-1-carbonyl]-1,4-dihydropyrimidin-4-one]: the EC50 under setting [2] was in the range of 0.01 to 10 nM.
